Source: patent publication US9120771B2, “Azetidine derivative and antidepressant composition including the same” (KOREA INSTITUTE OF SCIENCE AND TECHNOLOGY, priority 2011, dated 2015)
Counter-ions that a name gives are not always drawn. Like-named read-outs stand apart in the source and are kept apart here.

What was measured:
[1] = biological target: human dopamine transporter (Homo sapiens (Human), UniProt Q01959); experiment: hDAT binding assay ([3H]WIN35,428); settings: for inhibition at 10 µM: read-out: hDAT binding assay %-inhibition (10 uM); for IC50: membrane from CHO-K1 cells, 8 nM [3H]WIN35,428;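 on all read-outs here: displacement of the radioligand from the transporter membranes, incubated 120 min at 4 °C in Tris-HCl buffer with NaCl, pH 7.4, measured by filter-bound radioactivity counting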
human dopamine transporter, sequence (Q01959 whole entry): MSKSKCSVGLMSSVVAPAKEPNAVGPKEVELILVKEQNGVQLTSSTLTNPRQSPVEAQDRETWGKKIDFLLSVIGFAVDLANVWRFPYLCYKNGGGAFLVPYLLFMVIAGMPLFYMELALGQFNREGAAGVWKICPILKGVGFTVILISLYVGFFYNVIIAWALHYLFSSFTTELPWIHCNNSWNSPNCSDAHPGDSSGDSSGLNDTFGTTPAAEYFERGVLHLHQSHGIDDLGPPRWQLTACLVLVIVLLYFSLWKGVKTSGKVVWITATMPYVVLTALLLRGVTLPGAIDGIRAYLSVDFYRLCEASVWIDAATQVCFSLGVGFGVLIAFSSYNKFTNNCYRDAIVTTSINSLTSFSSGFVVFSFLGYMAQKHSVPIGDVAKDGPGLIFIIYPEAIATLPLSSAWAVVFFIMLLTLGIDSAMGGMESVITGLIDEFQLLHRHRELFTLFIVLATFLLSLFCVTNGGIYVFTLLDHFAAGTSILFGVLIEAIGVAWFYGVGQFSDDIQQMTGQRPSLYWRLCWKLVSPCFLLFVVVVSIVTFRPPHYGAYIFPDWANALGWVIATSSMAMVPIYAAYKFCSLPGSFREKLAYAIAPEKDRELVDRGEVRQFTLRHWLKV

[2] = biological target: human serotonin transporter (Homo sapiens (Human), UniProt P31645); experiment: hSERT binding assay ([3H]Imipramine); settings: for inhibition at 10 µM: read-out: hSERT binding assay %-inhibition (10 uM);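 on all read-outs here: displacement of radiolabeled imipramine from the transporter, incubated 30 min at 27 °C in Tris-HCl pH 7.4 with NaCl and KCl, bound radioactivity counted after filtration, nonspecific binding defined with 200 uM imipramine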
human serotonin transporter, sequence (P31645 whole entry): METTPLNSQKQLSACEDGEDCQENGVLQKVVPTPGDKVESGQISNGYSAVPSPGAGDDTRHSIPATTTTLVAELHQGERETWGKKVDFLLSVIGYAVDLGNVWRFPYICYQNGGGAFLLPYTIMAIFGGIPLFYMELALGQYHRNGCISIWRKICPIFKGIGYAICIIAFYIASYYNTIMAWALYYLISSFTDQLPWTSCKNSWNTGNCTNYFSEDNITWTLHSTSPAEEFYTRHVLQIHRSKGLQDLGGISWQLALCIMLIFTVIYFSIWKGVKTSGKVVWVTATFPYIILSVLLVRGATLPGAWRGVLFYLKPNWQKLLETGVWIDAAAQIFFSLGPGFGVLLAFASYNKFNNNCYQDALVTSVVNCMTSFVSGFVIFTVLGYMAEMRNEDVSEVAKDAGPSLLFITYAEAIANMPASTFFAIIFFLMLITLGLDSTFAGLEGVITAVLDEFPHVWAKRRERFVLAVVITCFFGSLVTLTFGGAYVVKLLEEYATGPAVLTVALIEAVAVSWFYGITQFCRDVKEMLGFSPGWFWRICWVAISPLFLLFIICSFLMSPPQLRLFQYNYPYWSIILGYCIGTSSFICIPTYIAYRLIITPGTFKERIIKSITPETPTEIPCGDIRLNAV

[3] = biological target: human norepinephrine transporter (Homo sapiens (Human), UniProt P23975); experiment: hNET binding assay ([3H]Nisoxetine); settings: for inhibition at 10 µM: read-out: hNET binding assay %-inhibition (10 uM)
human norepinephrine transporter, sequence (P23975 whole entry): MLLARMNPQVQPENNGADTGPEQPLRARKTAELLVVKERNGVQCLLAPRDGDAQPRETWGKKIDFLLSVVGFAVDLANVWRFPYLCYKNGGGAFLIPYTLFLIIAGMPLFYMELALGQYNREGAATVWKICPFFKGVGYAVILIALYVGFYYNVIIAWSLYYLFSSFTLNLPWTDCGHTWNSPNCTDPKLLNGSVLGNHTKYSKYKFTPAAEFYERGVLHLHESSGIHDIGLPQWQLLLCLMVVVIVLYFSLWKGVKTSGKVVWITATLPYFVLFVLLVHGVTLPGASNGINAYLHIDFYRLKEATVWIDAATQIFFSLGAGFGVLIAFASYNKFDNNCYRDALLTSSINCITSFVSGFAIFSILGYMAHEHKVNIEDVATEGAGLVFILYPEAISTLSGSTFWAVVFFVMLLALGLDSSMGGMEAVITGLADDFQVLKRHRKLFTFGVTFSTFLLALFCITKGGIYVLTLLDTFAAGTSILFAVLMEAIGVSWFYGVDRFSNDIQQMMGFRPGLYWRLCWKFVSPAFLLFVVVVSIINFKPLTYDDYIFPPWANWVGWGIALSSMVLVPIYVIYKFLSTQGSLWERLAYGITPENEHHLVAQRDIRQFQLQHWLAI
Protocol: NE transporter binding assay for evaluating binding of the compound to the norepinephrine transporter was carried out using human recombinant norepinephrine transporter membrane (PerkinElmer Life and Analytical Sciences, USA) expressed in MDCK cells and radioisotope [^3H]Nisoxetine (PerkinElmer).
That is, the test drug, 6 nM [^3H]Nisoxetine, norepinephrine transporter membrane (11 ug/well), 120 mM NaCl and 50 mM Tris-HCl buffer (pH 7.4) containing 5 mM KCl were added to obtain a reaction mixture with a final volume of 0.25 ml. After incubation for 60 minutes at 4° C., the mixture was quickly passed through a Filtermat A glass fiber filter pre-soaked with 0.5% (w/v) PEI (polyethyleneimine) using Inotech Harvester (Inotech) to terminate the reaction. After washing with cold washing buffer (50 mM Tris-HCl, pH 7.4, 0.9% NaCl) solution, the filter was covered with MeltiLex and sealed in a sample bag. After drying in an oven, radioactivity was counted using MicroBeta Plus (Wallac).
Non-specific binding was measured in the presence of 1 uM desipramine. The IC50 value of the test drug was calculated from non-linear regression analysis (GraphPad Prism Program, San Diego, USA) of each %-inhibition value obtained from the drug with concentrations of 7th and 8th steps.

[4] = 10 uM, membrane from HEK293 cells
[5] = membrane from HEK293 cells, 2 nM [3H]Imipramine
[6] = 10 uM, membrane from MDCK cells
[7] = membrane from MDCK cells, 6 nM [3H]Nisoxetine

Cl.Fc1cc(C(Oc2cccc(Cl)c2)C2CNC2)ccc1Cl (stereo not shown)
melting point: 204 °C

Cl.Fc1cccc(OC(c2ccc(Cl)c(Cl)c2)C2CNC2)c1 (stereo not shown)
melting point: 218 °C

Cl.FC(F)(F)Oc1ccccc1OC(c1ccc2ccccc2c1)C1CNC1 (stereo not shown)
melting point: 228 °C

Cl.Fc1ccc(C(Oc2ccccc2F)C2CNC2)cc1Cl (stereo not shown)
melting point: 194 °C

Cl.Fc1ccc(OC(c2ccc(Cl)c(Cl)c2)C2CNC2)cc1 (stereo not shown)
melting point: 210 °C

Cl.FC(F)(F)Oc1ccc(OC(c2ccc(Cl)c(Cl)c2)C2CNC2)cc1 (stereo not shown)
melting point: 217 °C

Cl.Fc1cc(C(Oc2ccccc2)C2CNC2)ccc1Cl (stereo not shown)
melting point: 201 °C

Cl.Fc1ccccc1OC(c1ccc2ccccc2c1)C1CNC1 (stereo not shown)
melting point: 211 °C

Cl.Fc1cccc(OC(c2ccc(F)c(Cl)c2)C2CNC2)c1 (stereo not shown)
melting point: 209 °C

Cl.FC(F)(F)Oc1ccc(OC(c2ccc3ccccc3c2)C2CNC2)cc1 (stereo not shown)
melting point: 209 °C

CCOC(c1ccc(Cl)c(Cl)c1)C1CNC1.Cl (stereo not shown) [KHG26757, 3-((3,4-dichlorophenyl)(ethoxy)methyl)azetidine hydrochloride]
inhibition at 10 µM [1]: 58%
melting point: 156 °C
IC50 [2]: 97.5 nM
inhibition at 10 µM [2]: 83%
IC50 [3]: 153 nM
inhibition at 10 µM [3]: 86%

Cc1ccc(OC(c2ccc(Cl)c(F)c2)C2CNC2)cc1.Cl (stereo not shown)
melting point: 173 °C

CCOC(c1ccc(Cl)c(F)c1)C1CNC1.Cl (stereo not shown)
melting point: 215 °C

CCOC(c1ccc(Cl)cc1)C1CNC1.Cl (stereo not shown) [KHG26754, 3-((4-chlorophenyl)(ethoxy)methyl)azetidine hydrochloride]
IC50 [1]: 1950 nM
inhibition at 10 µM [1]: 76%
melting point: 190 °C
inhibition at 10 µM [2, 4]: 95%
IC50 [2, 5]: 120 nM
inhibition at 10 µM [3, 6]: 91%
IC50 [3, 7]: 666 nM

Cl.O=C(OC(c1ccccc1)C1CNC1)c1ccccc1 (stereo not shown) [KHG26771, azetidine-3-yl(phenyl)methyl benzoate hydrochloride]
IC50 [1]: 1680 nM
inhibition at 10 µM [1]: 77%
melting point: 215 °C
IC50 [2]: 402 nM
inhibition at 10 µM [2]: 92%
inhibition at 10 µM [3, 6]: 54%

Cl.Fc1ccc(OC(c2ccc3ccccc3c2)C2CNC2)cc1F (stereo not shown)
melting point: 212 °C

Cl.Fc1ccc(C(Oc2cccc(Cl)c2)C2CNC2)cc1Cl (stereo not shown)
melting point: 205 °C

Cl.Fc1cc(C(OCc2ccccc2)C2CNC2)ccc1Cl (stereo not shown)
melting point: 191 °C

Cl.Fc1cc(C(Oc2ccccc2Cl)C2CNC2)ccc1Cl (stereo not shown)
melting point: 220 °C

Cc1cccc(OC(c2ccc3ccccc3c2)C2CNC2)c1.Cl (stereo not shown)
melting point: 210 °C

Cl.Fc1ccc(OC(c2ccc(Cl)c(F)c2)C2CNC2)cc1F (stereo not shown)
melting point: 216 °C

Cl.Fc1ccc(OC(c2ccc(F)c(Cl)c2)C2CNC2)cc1 (stereo not shown)
melting point: 211 °C

Cc1ccccc1OC(c1ccc2ccccc2c1)C1CNC1.Cl (stereo not shown)
melting point: 213 °C

Cl.Fc1ccc(C(Oc2cccc(Cl)c2)C2CNC2)cc1F (stereo not shown)
melting point: 152 °C

Cl.Fc1ccc(OC(c2ccc(Cl)c(Cl)c2)C2CNC2)cc1F (stereo not shown)
melting point: 240 °C

Cl.Clc1ccc(OC(c2ccc3ccccc3c2)C2CNC2)cc1 (stereo not shown)
melting point: 211 °C

Cl.Fc1ccc(C(Oc2ccccc2F)C2CNC2)cc1F (stereo not shown)
melting point: 187 °C

Cl.OC(c1ccccc1)C1CNC1 (stereo not shown)
melting point: 223 °C

Cl.c1ccc(OC(c2ccc3ccccc3c2)C2CNC2)cc1 (stereo not shown)
melting point: 218 °C

Cl.Clc1ccc(OC(c2ccc3ccccc3c2)C2CNC2)cc1Cl (stereo not shown)
melting point: 217 °C

Cl.Fc1ccc(C(Oc2ccc(Cl)c(Cl)c2)C2CNC2)cc1Cl (stereo not shown)
melting point: 186 °C

Cc1ccc(OC(c2ccc(F)c(F)c2)C2CNC2)cc1.Cl (stereo not shown)
melting point: 159 °C

Cl.Fc1ccc(C(Oc2ccccc2Cl)C2CNC2)cc1F (stereo not shown)
melting point: 174 °C

Cl.c1ccc(C(Oc2ccc3ccccc3c2)C2CNC2)cc1 (stereo not shown)
melting point: 183 °C

Clc1ccc(C(Oc2ccccc2)C2CNC2)cc1Cl (stereo not shown) (as salt: hydrochloride) [KHG26767, 3-((3,4-dichlorophenyl)(phenoxy)methyl)azetidine hydrochloride]
melting point: 175 °C

Cl.Fc1cccc(OC(c2ccc3ccccc3c2)C2CNC2)c1 (stereo not shown)
melting point: 216 °C

Cl.Fc1cc(C(Oc2cccc(OC(F)(F)F)c2)C2CNC2)ccc1Cl (stereo not shown)
melting point: 145 °C

Cc1ccccc1OC(c1ccc(F)c(F)c1)C1CNC1.Cl (stereo not shown)
melting point: 151 °C

CCCOC(c1ccc2ccccc2c1)C1CNC1.Cl (stereo not shown)
melting point: 223 °C

COC(c1ccccc1)C1CNC1.Cl (stereo not shown)
melting point: 228 °C

CCCOC(c1ccc(F)c(F)c1)C1CNC1.Cl (stereo not shown)
melting point: 116 °C

Cc1cccc(OC(c2ccc(Cl)c(F)c2)C2CNC2)c1.Cl (stereo not shown)
melting point: 203 °C

Cl.Clc1cccc(OC(c2ccc3ccccc3c2)C2CNC2)c1 (stereo not shown)
melting point: 214 °C

Cc1ccc(OC(c2ccc3ccccc3c2)C2CNC2)cc1.Cl (stereo not shown)
melting point: 203 °C

Cl.Fc1ccccc1OC(c1ccc(Cl)c(Cl)c1)C1CNC1 (stereo not shown)
melting point: 224 °C

CCCOC(c1ccc(Cl)c(Cl)c1)C1CNC1.Cl (stereo not shown)
melting point: 151 °C

Cl.Fc1ccc(C(Oc2ccccc2OC(F)(F)F)C2CNC2)cc1Cl (stereo not shown)
melting point: 157 °C

Cl.Clc1cccc(OC(c2ccc(Cl)c(Cl)c2)C2CNC2)c1 (stereo not shown)
melting point: 169 °C

Cl.FC(F)(F)Oc1cccc(OC(c2ccc(Cl)c(Cl)c2)C2CNC2)c1 (stereo not shown)
melting point: 208 °C

Cl.Fc1cc(C(Oc2ccc(Cl)cc2)C2CNC2)ccc1Cl (stereo not shown)
melting point: 203 °C

Cl.Fc1ccc(OC(c2ccc(F)c(Cl)c2)C2CNC2)cc1F (stereo not shown)
melting point: 187 °C

Cc1ccccc1OC(c1ccc(F)c(Cl)c1)C1CNC1.Cl (stereo not shown)
melting point: 209 °C

Cl.Fc1ccc(C(Oc2cccc(OC(F)(F)F)c2)C2CNC2)cc1Cl (stereo not shown)
melting point: 157 °C

Cc1ccc(OC(c2ccc(F)c(Cl)c2)C2CNC2)cc1.Cl (stereo not shown)
melting point: 183 °C

Cl.Fc1ccc(C(Oc2ccccc2)C2CNC2)cc1Cl (stereo not shown)
melting point: 208 °C

COC(c1ccc(Cl)cc1)C1CNC1.Cl (stereo not shown) [KHG26753, 3-((4-chlorophenyl)(methoxy)methyl)azetidine hydrochloride]
inhibition at 10 µM [1]: 58%
melting point: 281 °C
inhibition at 10 µM [2, 4]: 95%
IC50 [2, 5]: 42.9 nM
inhibition at 10 µM [3, 6]: 52%

Cl.Fc1cc(C(Oc2ccc(OC(F)(F)F)cc2)C2CNC2)ccc1Cl (stereo not shown)
melting point: 151 °C

Cl.Fc1cc(C(Oc2ccccc2F)C2CNC2)ccc1Cl (stereo not shown)
melting point: 198 °C

Cl.Fc1ccc(OC(c2ccc(Cl)c(F)c2)C2CNC2)cc1 (stereo not shown)
melting point: 218 °C

Cl.Clc1ccccc1OC(c1ccc2ccccc2c1)C1CNC1 (stereo not shown)
melting point: 207 °C

Cc1cccc(OC(c2ccc(F)c(Cl)c2)C2CNC2)c1.Cl (stereo not shown)
melting point: 151 °C

Cl.Fc1ccc(C(Oc2ccccc2Cl)C2CNC2)cc1Cl (stereo not shown)
melting point: 188 °C

Cl.Fc1cc(C(Oc2ccc(Cl)c(Cl)c2)C2CNC2)ccc1Cl (stereo not shown)
melting point: 192 °C

Cl.Clc1ccc(OC(c2ccc(Cl)c(Cl)c2)C2CNC2)cc1Cl (stereo not shown)
melting point: 208 °C

Cl.FC(F)(F)Oc1cccc(OC(c2ccc3ccccc3c2)C2CNC2)c1 (stereo not shown)
melting point: 217 °C

Cl.Clc1ccc(OC(c2ccc(Cl)c(Cl)c2)C2CNC2)cc1 (stereo not shown)
melting point: 201 °C

Cc1ccccc1OC(c1ccc(Cl)c(F)c1)C1CNC1.Cl (stereo not shown)
melting point: 205 °C

Cl.Fc1ccc(OC(c2ccc(F)c(F)c2)C2CNC2)cc1 (stereo not shown)
melting point: 188 °C

Cl.Fc1ccc(OC(c2ccc3ccccc3c2)C2CNC2)cc1 (stereo not shown)
melting point: 214 °C

Cl.FC(F)(F)Oc1ccccc1OC(c1ccc(Cl)c(Cl)c1)C1CNC1 (stereo not shown)
melting point: 225 °C

COC(c1ccc(Cl)c(Cl)c1)C1CNC1.Cl (stereo not shown) [KHG26756, 3-((3,4-dichlorophenyl)(methoxy)methyl)azetidine hydrochloride]
inhibition at 10 µM [1]: 54%
melting point: 109 °C
inhibition at 10 µM [2, 4]: 79%
IC50 [2, 5]: 271 nM
inhibition at 10 µM [3, 6]: 85%
IC50 [3, 7]: 339 nM

Cl.Fc1ccc(C(Oc2ccc(Cl)cc2)C2CNC2)cc1Cl (stereo not shown)
melting point: 218 °C

Cl.Fc1cccc(OC(c2ccc(Cl)c(F)c2)C2CNC2)c1 (stereo not shown)
melting point: 217 °C

CCOC(c1ccccc1)C1CNC1.Cl (stereo not shown)
melting point: 205 °C

Cl.Fc1cc(C(Oc2ccccc2OC(F)(F)F)C2CNC2)ccc1Cl (stereo not shown)
melting point: 166 °C

CCOC(c1ccc2ccccc2c1)C1CNC1.Cl (stereo not shown)
melting point: 205 °C

Cl.Clc1ccc(C(Oc2ccccc2Cl)C2CNC2)cc1Cl (stereo not shown)
melting point: 197 °C

Cc1cccc(OC(c2ccc(F)c(F)c2)C2CNC2)c1.Cl (stereo not shown)
melting point: 189 °C
